Laboratory results taken from US9556201B2, “Bicyclic pyridines and analogs as sirtuin modulators” (GLAXOSMITHKLINE LLC, priority 2009, dated 2017).

Molecular target: T1, SIRT1 (Homo sapiens, UniProt Q96EB6)
T1 sequence (Q96EB6 1-747): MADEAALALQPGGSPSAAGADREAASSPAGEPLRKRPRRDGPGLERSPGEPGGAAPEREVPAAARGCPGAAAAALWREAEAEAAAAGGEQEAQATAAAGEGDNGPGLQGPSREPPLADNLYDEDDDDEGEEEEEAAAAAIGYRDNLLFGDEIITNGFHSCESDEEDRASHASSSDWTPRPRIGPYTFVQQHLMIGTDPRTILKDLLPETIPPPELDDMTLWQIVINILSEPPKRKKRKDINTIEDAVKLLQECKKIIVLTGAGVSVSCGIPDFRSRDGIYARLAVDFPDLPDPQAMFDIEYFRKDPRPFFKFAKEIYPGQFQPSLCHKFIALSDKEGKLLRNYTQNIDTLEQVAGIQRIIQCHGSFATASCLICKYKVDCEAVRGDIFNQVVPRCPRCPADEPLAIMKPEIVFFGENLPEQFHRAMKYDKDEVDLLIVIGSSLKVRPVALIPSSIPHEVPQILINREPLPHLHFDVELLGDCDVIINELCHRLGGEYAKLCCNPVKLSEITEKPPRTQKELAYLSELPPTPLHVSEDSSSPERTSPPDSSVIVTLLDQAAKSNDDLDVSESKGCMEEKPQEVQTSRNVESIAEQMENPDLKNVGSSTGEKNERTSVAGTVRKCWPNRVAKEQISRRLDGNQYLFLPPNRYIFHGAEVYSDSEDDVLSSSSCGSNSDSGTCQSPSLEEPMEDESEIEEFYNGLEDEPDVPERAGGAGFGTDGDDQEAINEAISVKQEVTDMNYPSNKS
Assay: Mass spectrometry based assay to identify modulators of SIRT1 activity (deacetylation of p53-based acetylated peptide substrate)
Format: biochemical
Conditions: for Emax: 25 min, read-out: % FOLD ACT. (percent maximum fold activation); for Emax / EC1.5: SIRT1 activation
Source text: A mass spectrometry based assay was used to identify modulators of SIRT1 activity. The mass spectrometry based assay utilizes a peptide having 20 amino acid residues as follows: Ac-EE-K(biotin)-GQSTSSHSK(Ac)NleSTEG-K(5TMR)-EE-NH2 (SEQ ID NO: 1) wherein K(Ac) is an acetylated lysine residue and Nle is a norleucine. The peptide is labeled with the fluorophore 5TMR (excitation 540 nm/emission 580 nm) at the C-terminus. The sequence of the peptide substrate is based on p53 with several modifications. In addition, the methionine residue naturally present in the sequence was replaced with the norleucine because the methionine may be susceptible to oxidation during synthesis and purification.
The mass spectrometry assay is conducted as follows: […] peptide substrate and 120 μM βNAD^+ is incubated with 10 nM SIRT1 for 25 minutes at 25° C. in a reaction buffer (50 mM Tris-acetate pH 8, 137 mM NaCl, 2.7 mM KCl, 1 mM MgCl2, 5 mM DTT, 0.05% BSA). Test compounds may be added to the reaction as described above. The SirT1 gene is cloned into a T7-promoter containing vector and transformed into BL21(DE3). After the 25 minute incubation with SIRT1, 10 μL of 10% formic acid is added to stop the reaction. Reactions are sealed and frozen for later mass spec analysis. Determination of the mass of the substrate peptide allows for precise determination of the degree of acetylation (i.e. starting material) as compared to deacetylated peptide (product).
A control for inhibition of sirtuin activity is conducted by adding 1 μL of 500 mM nicotinamide as a negative control at the start of the reaction (e.g., permits determination of maximum sirtuin inhibition). A control for activation of sirtuin activity is conducted using 10 nM of sirtuin protein, with 1 μL of DMSO in place of compound, to determine the amount of deacetylation of the substrate at a given timepoint within the linear range of the assay. This timepoint is the same as that used for test compounds and, within the linear range, the endpoint represents a change in velocity.
For the above assay, SIRT1 protein was expressed and purified as follows. The SirT1 gene was cloned into a T7-promoter containing vector and transformed into BL21(DE3). The protein was expressed by induction with 1 mM IPTG as an N-terminal His-tag fusion protein at 18° C. overnight and harvested at 30,000×g. Cells were lysed with lysozyme in lysis buffer (50 mM Tris-HCl, 2 mM Tris[2-carboxyethyl]phosphine (TCEP), 10 μM ZnCl2, 200 mM NaCl) and further treated with sonication for 10 min for complete lysis. The protein was purified over a Ni-NTA column (Amersham) and fractions containing pure protein were pooled, concentrated and run over a sizing column (Sephadex S200 26/60 global). The peak containing soluble protein was collected and run on an Ion-exchange column (MonoQ). Gradient elution (200 mM-500 mM NaCl) yielded pure protein. This protein was concentrated and dialyzed against dialysis buffer (20 mM Tris-HCl, 2 mM TCEP) overnight. The protein was aliquoted and frozen at −80° C. until further use.

| SMILES | Emax [%] | EC1.5 | EC1.5 (concentration giving 1.5-fold activation) [µM] |
| --- | --- | --- | --- |
| O=C(Nc1cccnc1)N1CCCc2ccc(-c3cccc(F)c3)nc21 [Compound 650] | > 200 | B (EC1.5 1-25 μM) | – |
| Cc1cncc(NC(=O)N2CCCOc3ccc(-c4ccnc(C)c4)nc32)c1 [Compound 655] | ≤ 200 | B (EC1.5 1-25 μM) | – |
| O=C(Nc1ncccn1)N1CCCc2ccc(-c3cccc(F)c3)nc21 [Compound 665] | > 200 | B (EC1.5 1-25 μM) | – |
| O=C(Nc1ncccn1)N1CCCc2ccc(-c3cccc(C(F)(F)F)c3)nc21 [Compound 666] | > 200 | A (EC1.5<1.0 μM) | – |
| O=C(Nc1ccncc1)N1CCOc2ccc(-c3ccccc3)nc21 [Compound 673] | > 200 | A (EC1.5<1.0 μM) | – |
| Cc1cc(-c2ccc3c(n2)N(C(=O)Nc2nc(C)cs2)CCCO3)ccn1 [Compound 676] | > 200 | B (EC1.5 1-25 μM) | – |
| O=C(Nc1cccc(OC[C@H](O)CO)n1)N1CCCc2ccc(-c3cccc(F)c3)nc21 [Compound 679] | > 200 | A (EC1.5<1.0 μM) | – |
| Cc1cc(-c2cccc(Cl)c2)nc2c1OCCN2C(=O)Nc1ccncc1 [Compound 686] | > 200 | A (EC1.5<1.0 μM) | – |
| Cc1cc(-c2cccc(Cl)c2)nc2c1OCCN2C(=O)Nc1ccncc1F [Compound 687] | > 200 | A (EC1.5<1.0 μM) | – |
| O=C(Nc1c(F)c(F)c(F)c(F)c1F)N1CCCOc2ccc(-c3cccc(C(F)(F)F)c3)nc21 [Compound 693] | ≤ 200 | C (EC1.5>25 μM) | – |
| Cc1cc(OCC(O)CO)nc(NC(=O)N2CCOc3ccc(-c4cccc(C(F)(F)F)c4)nc32)n1 (stereo not drawn) [Compound 698] | ≤ 200 | – | 1 to 25 |

Next, values leading:

| Emax [%] | EC1.5 | EC1.5 (concentration giving 1.5-fold activation) [µM] | SMILES |
| --- | --- | --- | --- |
| > 200 | A (EC1.5<1.0 μM) | – | O=C(Nc1ccncc1)N1CCCc2ccc(-c3cccc(F)c3)nc21 [Compound 648] |
| > 200 | A (EC1.5<1.0 μM) | – | O=C(Nc1ccccn1)N1CCCc2ccc(-c3cccc(F)c3)nc21 [Compound 649] |
| > 200 | A (EC1.5<1.0 μM) | – | O=C(Nc1ccncc1)N1CCCc2ccc(-c3cccc(Cl)c3)nc21 [Compound 651] |
| > 200 | A (EC1.5<1.0 μM) | – | O=C(Nc1ccccn1)N1CCCc2ccc(-c3cccc(Cl)c3)nc21 [Compound 652] |
| > 200 | B (EC1.5 1-25 μM) | – | Cc1cc(NC(=O)N2CCCOc3ccc(-c4ccnc(C)c4)nc32)ccn1 [Compound 656] |
| > 200 | B (EC1.5 1-25 μM) | – | Cc1cc(-c2ccc3c(n2)N(C(=O)Nc2cc(C)nc(C)c2)CCCO3)ccn1 [Compound 657] |
| > 200 | B (EC1.5 1-25 μM) | – | O=C(Nc1ncccn1)N1CCCc2ccc(-c3cccc(Cl)c3)nc21 [Compound 667] |
| > 200 | B (EC1.5 1-25 μM) | – | Cc1cc(-c2ccc3c(n2)N(C(=O)Nc2ccncn2)CCCO3)ccn1 [Compound 674] |
| > 200 | B (EC1.5 1-25 μM) | – | CN(C)Cc1cccc(-c2ccc3c(n2)N(C(=O)Nc2cccnc2)CC(C)(C)O3)c1 [Compound 677, 6-(3-((dimethylamino)methyl)phenyl)-2,2-dimethyl-N-(pyridin-3-yl)-2H-pyrido[3,2-b][1,4]oxazine-4(3H)-carboxamide] |
| > 200 | B (EC1.5 1-25 μM) | – | Cc1ccc(-c2ccc3c(n2)N(C(=O)Nc2nc(C)cs2)CCCO3)cn1 [Compound 680] |
| ≤ 200 | C (EC1.5>25 μM) | – | Cc1ccc(-c2ccc3c(n2)N(C(=O)Nc2ccncn2)CCCO3)cn1 [Compound 681] |
| > 200 | A (EC1.5<1.0 μM) | – | Cc1cc(-c2cccc(Cl)c2)nc2c1OCCN2C(=O)Nc1ccncn1 [Compound 685] |
| > 200 | B (EC1.5 1-25 μM) | – | Cc1ccc(-c2ccc3c(n2)N(C(=O)Nc2cccc(OC[C@H](O)CO)n2)CCO3)cn1 [Compound 694] |
